The values that follow come from US20230158071A1, “TUMOR COMBINED IMMUNOTHERAPY” (CRAGE medical Co., Limited, priority 2018, published 2023).

The subject of assay [1] is 806-mCD28z-CAR-T cells. The assay is described as follows: Flow cytometry (CellTrace) of CAR-T proliferation in co-culture with breast cancer cells. Type of assay: cell-based, mouse. The settings on record: co-incubation 1:1, 16 hours. Here is the method: The experimental groups are as follows: 806-mCD28z-CAR-T group (or denoted as 806-28Z), olaparib pretreatment group, and olaparib combined treatment group;
The olaparib pretreatment group comprises: 806-mCD28z-CAR-T+1 μM olaparib pretreatment group (or denoted as 806-28Z+Olaparib 1 μM pretreatment), 806-mCD28z-CAR-T+5 μM olaparib pretreatment group (or denoted as 806-28Z+Olaparib 5 μM pretreatment);
Olaparib combined treatment group comprises: 806-mCD28z-CAR-T+1 μM olaparib combined treatment group (or denoted as 806-28Z+Olaparib 1 μM), 806-mCD28z-CAR-T+5 μM olaparib combined treatment group (or denoted as 806-28Z+Olaparib 5 μM).
Before the co-incubation experiment, 806-mCD28z-CAR-T cells need to be stained with CellTrace dye. […]
Olaparib pretreatment group: different concentrations of olaparib (1 μM, 5 μM) are respectively added to a medium for culturing E0771-EGFRvIII or 4T1-EGFRvIII tumor cells, after culturing at 37° C. for 24 hours, the cells are treated with trypsin and resuspended in fresh medium. 806-mCD28z-CAR T cells in Example 1 are taken to co-incubate with E0771-EGFRVIII or 4T1-EGFRvIII cells pretreated with different concentrations of olaparib at a ratio of 1:1; 16 hours later, the proliferation of CAR-T cells and the expression levels of the T cell exhaustion-related proteins PD1, LAG3 and TIM3 on the surface of CAR-T cells are detected by flow cytometry. […]

The test system of assay [2] is E0771-EGFRvIII cells. The assay is described as follows: CCK8 proliferation assay, olaparib on E0771-EGFRvIII breast cancer cells. Type of assay: cell-based, mouse. The source says: Since the EGFR287-302 epitope is only exposed in EGFRvIII or tumors overexpressing EGFR, this epitope is hidden in normal tissues (Gan H K et al., Targeting of a conformationally exposed, tumor-specific epitope of EGFR as a strategy for cancer therapy. Cancer Res. 2012, 72(12):2924-2930), conventional methods in molecular biology are used to establish E0771, 4T1 mouse breast cancer cell models (E0771-EGFRvIII, 4T1-EGFRvIII) that overexpress mouse EGFR inserted with amino acid epitope at positions 287-302 of human EGFR. Subsequent research is performed to screen EGFRvIII target-positive cells by cell flow cytometry (FIG. 2A). E0771, 4T1 cells are purchased from the American Type Culture Collection (ATCC).
As an effective inhibitor of PARP1, olaparib may inhibit PARP1 to participate in DNA damage repair process. In mouse breast cancer cell lines and mouse T cells and CART cells, different levels of PARP1 expression are detected (FIG. 2B). Therefore, CCK8 proliferation assay is required to detect the effect of olaparib on proliferation of tumor cells and CART cells.
806-m28Z CAR-T cells in Example 1 are taken to spread in a 96-well plate with 1×10^4 cells per well and 100 μl medium. Breast cancer cells E0771-EGFRvIII and 4T1-EGFRvIII are taken to spread in a 96-well plate with 1×10^4 cells per well and 100 μl medium. Different concentrations of olaparib are taken to add to the cells to make 10 concentration gradients (i.e., the treatment concentrations of olaparib are respectively 50 μM, 20 μM, 10 μM, 5 μM, 2.5 μM, 1 μM, 0.1 μM, 0.01 μM, 0.001 μM, 0 μg/ml). After 48 hours of drug treatment for cells of different groups, 10 μl of CCK8 substrate color reagent (Dojindo) is added to each well; after incubating for 1 hour at 37° C., the absorbance at 450 nm is measured by a microplate reader, calculating the cell viability respectively.
The formula for calculating the cell viability is as follows:
Cell viability (%)=[A (adding drug)−A (blank)]/[A (without adding drug)−A (blank)]

Structures are written as SMILES.

Consider `O=C(c1cc(Cc2n[nH]c(=O)c3ccccc23)ccc1F)N1CCN(C(=O)C2CC2)CC1` [olaparib], for which the “proliferation of CART cells” value in assay [1] (olaparib combined treatment group (1 μM, 5 μM), not statistically significant) is on record as “slightly inhibited”; in assay [1] (olaparib pretreatment group (1 μM, 5 μM)), “not significantly affected”. In addition, in assay [2] (1 μM and higher concentration of olaparib, 48 hours, CCK8), the “inhibition rate of proliferation of E0771-EGFRVIII cell line” value is listed as 65%-90%. The “proliferation of E0771-EGFRVIII cells” value in assay [2] (1 μM olaparib) is reported as “inhibited”. In assay [2] (in vitro, tumor cells not specified further), the “concentration that may inhibit the growth of tumor cells” value is “higher than 104”. Further, the “proliferation of E0771-EGFRVIIII cells” value in assay [2] (olaparib) is reported as “inhibited”.
